# Test system: Hepatitis B virus
# Test: Antiviral activity against HBV infected in human HepG2-NTCP cells assessed as reduction in HBeAg secretion cells inoculated with virus for 4 hrs at room temperature and 37 degree C for 24 hrs followed inoculum changed with PMM medium for every 2 days until day 5 post infection by ELISA
# Type: functional, organism-based
row,IC50 [nM],SMILES
1,689,CC[C@@H]1NC(=O)[C@H]([C@@H]2O[C@@H](Oc3cc(OC)cc(OC)c3)C[C@H]2C)N(C)C(=O)[C@H](C(C)C)N(C)C(=O)[C@H](CC(C)C)N(C)C(=O)[C@H](CC(C)C)N(C)C(=O)[C@@H](C)NC(=O)[C@H](C)NC(=O)[C@H](CC(C)C)N(C)C(=O)[C@H](C(C)C)NC(=O)[C@H](CC(C)C)N(C)C(=O)CN(C)C1=O
2,1200,CC[C@@H]1NC(=O)[C@H]([C@@H]2O[C@@H](Sc3cccc(NC)c3)C[C@H]2C)N(C)C(=O)[C@H](C(C)C)N(C)C(=O)[C@H](CC(C)C)N(C)C(=O)[C@H](CC(C)C)N(C)C(=O)[C@@H](C)NC(=O)[C@H](C)NC(=O)[C@H](CC(C)C)N(C)C(=O)[C@H](C(C)C)NC(=O)[C@H](CC(C)C)N(C)C(=O)CN(C)C1=O
3,215,CC[C@@H]1NC(=O)[C@H]([C@@H]2O[C@@H](Sc3ccc(Cl)c(OCc4ccccc4)c3)C[C@H]2C)N(C)C(=O)[C@H](C(C)C)N(C)C(=O)[C@H](CC(C)C)N(C)C(=O)[C@H](CC(C)C)N(C)C(=O)[C@@H](C)NC(=O)[C@H](C)NC(=O)[C@H](CC(C)C)N(C)C(=O)[C@H](C(C)C)NC(=O)[C@H](CC(C)C)N(C)C(=O)CN(C)C1=O
4,530,CC[C@@H]1NC(=O)[C@H]([C@@H]2O[C@@H](Sc3cccc(OC)c3)C[C@H]2C)N(C)C(=O)[C@H](C(C)C)N(C)C(=O)[C@H](CC(C)C)N(C)C(=O)[C@H](CC(C)C)N(C)C(=O)[C@@H](C)NC(=O)[C@H](C)NC(=O)[C@H](CC(C)C)N(C)C(=O)[C@H](C(C)C)NC(=O)[C@H](CC(C)C)N(C)C(=O)CN(C)C1=O
5,1700,CC[C@@H]1NC(=O)[C@H]([C@@H]2O[C@H](Sc3ccc(OC)cc3)C[C@H]2C)N(C)C(=O)[C@H](C(C)C)N(C)C(=O)[C@H](CC(C)C)N(C)C(=O)[C@H](CC(C)C)N(C)C(=O)[C@@H](C)NC(=O)[C@H](C)NC(=O)[C@H](CC(C)C)N(C)C(=O)[C@H](C(C)C)NC(=O)[C@H](CC(C)C)N(C)C(=O)CN(C)C1=O
6,2170,CC[C@@H]1NC(=O)[C@H]([C@@H]2O[C@@H](Sc3c(OC)cccc3OC)C[C@H]2C)N(C)C(=O)[C@H](C(C)C)N(C)C(=O)[C@H](CC(C)C)N(C)C(=O)[C@H](CC(C)C)N(C)C(=O)[C@@H](C)NC(=O)[C@H](C)NC(=O)[C@H](CC(C)C)N(C)C(=O)[C@H](C(C)C)NC(=O)[C@H](CC(C)C)N(C)C(=O)CN(C)C1=O
7,206,CC[C@@H]1NC(=O)[C@H]([C@@H]2O[C@@H](Sc3cccc(N(C)CC)c3)C[C@H]2C)N(C)C(=O)[C@H](C(C)C)N(C)C(=O)[C@H](CC(C)C)N(C)C(=O)[C@H](CC(C)C)N(C)C(=O)[C@@H](C)NC(=O)[C@H](C)NC(=O)[C@H](CC(C)C)N(C)C(=O)[C@H](C(C)C)NC(=O)[C@H](CC(C)C)N(C)C(=O)CN(C)C1=O
8,346,CC[C@@H]1NC(=O)[C@H]([C@@H]2O[C@@H](Sc3ccc(OC)c(OC)c3)C[C@H]2C)N(C)C(=O)[C@H](C(C)C)N(C)C(=O)[C@H](CC(C)C)N(C)C(=O)[C@H](CC(C)C)N(C)C(=O)[C@@H](C)NC(=O)[C@H](C)NC(=O)[C@H](CC(C)C)N(C)C(=O)[C@H](C(C)C)NC(=O)[C@H](CC(C)C)N(C)C(=O)CN(C)C1=O
9,197,CC[C@@H]1NC(=O)[C@H]([C@@H]2O[C@@H](Sc3cccc(OCc4cccc(F)c4)c3)C[C@H]2C)N(C)C(=O)[C@H](C(C)C)N(C)C(=O)[C@H](CC(C)C)N(C)C(=O)[C@H](CC(C)C)N(C)C(=O)[C@@H](C)NC(=O)[C@H](C)NC(=O)[C@H](CC(C)C)N(C)C(=O)[C@H](C(C)C)NC(=O)[C@H](CC(C)C)N(C)C(=O)CN(C)C1=O
10,> 10000,CC[C@@H]1NC(=O)[C@H]([C@@H]2OC(OCC(=O)OC)C[C@H]2C)N(C)C(=O)[C@H](C(C)C)N(C)C(=O)[C@H](CC(C)C)N(C)C(=O)[C@H](CC(C)C)N(C)C(=O)[C@@H](C)NC(=O)[C@H](C)NC(=O)[C@H](CC(C)C)N(C)C(=O)[C@H](C(C)C)NC(=O)[C@H](CC(C)C)N(C)C(=O)CN(C)C1=O (stereo partly drawn)
11,417,CC[C@@H]1NC(=O)[C@H]([C@@H]2O[C@@H](Sc3cc(Cl)cc(OCc4ccc(F)cc4)c3)C[C@H]2C)N(C)C(=O)[C@H](C(C)C)N(C)C(=O)[C@H](CC(C)C)N(C)C(=O)[C@H](CC(C)C)N(C)C(=O)[C@@H](C)NC(=O)[C@H](C)NC(=O)[C@H](CC(C)C)N(C)C(=O)[C@H](C(C)C)NC(=O)[C@H](CC(C)C)N(C)C(=O)CN(C)C1=O
12,990,CC[C@@H]1NC(=O)[C@H]([C@@H]2O[C@@H](Sc3ccc(OC)cc3)C[C@H]2C)N(C)C(=O)[C@H](C(C)C)N(C)C(=O)[C@H](CC(C)C)N(C)C(=O)[C@H](CC(C)C)N(C)C(=O)[C@@H](C)NC(=O)[C@H](C)NC(=O)[C@H](CC(C)C)N(C)C(=O)[C@H](C(C)C)NC(=O)[C@H](CC(C)C)N(C)C(=O)CN(C)C1=O
13,11900,CC[C@@H]1NC(=O)C([C@@H]2OC(O)C[C@H]2C)N(C)C(=O)[C@H](C(C)C)N(C)C(=O)[C@H](CC(C)C)N(C)C(=O)[C@H](CC(C)C)N(C)C(=O)[C@@H](C)NC(=O)[C@H](C)NC(=O)[C@H](CC(C)C)N(C)C(=O)[C@H](C(C)C)NC(=O)[C@H](CC(C)C)N(C)C(=O)CN(C)C1=O (stereo partly drawn)
14,354,CC[C@@H]1NC(=O)[C@H]([C@@H]2O[C@@H](Sc3cccc(OCCc4ccccc4)c3)C[C@H]2C)N(C)C(=O)[C@H](C(C)C)N(C)C(=O)[C@H](CC(C)C)N(C)C(=O)[C@H](CC(C)C)N(C)C(=O)[C@@H](C)NC(=O)[C@H](C)NC(=O)[C@H](CC(C)C)N(C)C(=O)[C@H](C(C)C)NC(=O)[C@H](CC(C)C)N(C)C(=O)CN(C)C1=O
15,382,CC[C@@H]1NC(=O)[C@H]([C@@H]2O[C@@H](Sc3cccc(OCc4ccncc4)c3)C[C@H]2C)N(C)C(=O)[C@H](C(C)C)N(C)C(=O)[C@H](CC(C)C)N(C)C(=O)[C@H](CC(C)C)N(C)C(=O)[C@@H](C)NC(=O)[C@H](C)NC(=O)[C@H](CC(C)C)N(C)C(=O)[C@H](C(C)C)NC(=O)[C@H](CC(C)C)N(C)C(=O)CN(C)C1=O
16,1270,CC[C@@H]1NC(=O)[C@H]([C@@H]2O[C@@H](Sc3ccc(N4CCOCC4)cc3)C[C@H]2C)N(C)C(=O)[C@H](C(C)C)N(C)C(=O)[C@H](CC(C)C)N(C)C(=O)[C@H](CC(C)C)N(C)C(=O)[C@@H](C)NC(=O)[C@H](C)NC(=O)[C@H](CC(C)C)N(C)C(=O)[C@H](C(C)C)NC(=O)[C@H](CC(C)C)N(C)C(=O)CN(C)C1=O
17,344,CC[C@@H]1NC(=O)[C@H]([C@@H]2O[C@@H](Oc3cccc(OCc4ccccc4)c3)C[C@H]2C)N(C)C(=O)[C@H](C(C)C)N(C)C(=O)[C@H](CC(C)C)N(C)C(=O)[C@H](CC(C)C)N(C)C(=O)[C@@H](C)NC(=O)[C@H](C)NC(=O)[C@H](CC(C)C)N(C)C(=O)[C@H](C(C)C)NC(=O)[C@H](CC(C)C)N(C)C(=O)CN(C)C1=O
18,269,CC[C@@H]1NC(=O)[C@H]([C@@H]2O[C@@H](Sc3cccc(OCc4cccnc4)c3)C[C@H]2C)N(C)C(=O)[C@H](C(C)C)N(C)C(=O)[C@H](CC(C)C)N(C)C(=O)[C@H](CC(C)C)N(C)C(=O)[C@@H](C)NC(=O)[C@H](C)NC(=O)[C@H](CC(C)C)N(C)C(=O)[C@H](C(C)C)NC(=O)[C@H](CC(C)C)N(C)C(=O)CN(C)C1=O

# — ChEMBL document CHEMBL4706643 (J Med Chem, 2021)
